{"source": "patent US20230399358A1", "about": "“IMMUNOGLOBULIN PURIFICATION PEPTIDES AND THEIR USE” (North Carolina State University, priority 2019, published 2023)", "key": {"human IgG": {"system": "human IgG", "assay": "Dynamic binding capacity by breakthrough assay", "details": "20 mg/mL IgG in PBS", "description": "Measurements of dynamic binding capacity (DBC) were performed on a Waters 2695 unit. MWRGWQ (SEQ ID NO:2)—Workbeads and WQRHGIC (SEQ ID NO:30)—Workbeads resins were wet packed in a 0.1 mL microbore column and equilibrated in PBS pH 7.4. A solution of human IgG at 20 mg/mL in PBS was owed through the column at 0.05 mL/min and 0.02 mL/min, corresponding to residence times (RT) of 2 and 5 min, respectively. The bound IgG was eluted with glycine pH 2.5. The absorbance of the effluent was monitored by UV/Vis spectrophotometry at 280 nm throughout the breakthrough study. The DBC was calculated at 10% of the breakthrough curve.\nBreakthrough curves (FIG. 5 panels A-D) were obtained by flowing a 20 mg/mL solution of IgG in PBS through the […] and MWRGWQC (SEQ ID NO:31)-WB adsorbents at two different flow rates (0.05 and 0.02 mL/min) corresponding to two different residence times (2 and 5 minutes)."}, "[1]": {"system": "human polyclonal IgG in CHO cell culture fluid", "assay": "Chromatographic purification of IgG from CHO cell culture fluid on WorkBeads resin, SDS-PAGE densitometry", "details": "Elution 1 (pH 4), 5 min residence time, FIG. 7B", "description": "Purification of IgG from CHO Cell culture fluids using MWRGWQC (SEQ ID NO:31)- and WQRHGIC (SEQ ID NO:30)—Workbeads: A volume of 0.1 mL of resin was packed in a PEEK microbore column, installed on a Waters 2695 unit, and equilibrated with PBS, pH 7.4. All chromatographic buffers were filtered through a compatible 0.2 μm filter prior to use. A volume of 100 μL of solution of human polyclonal IgG at 1 mg/mL in a CHO cell culture fluid at 0.205 mg/mL CHO HCPs was injected in the column at 0.02 mL/min (RT: 5 minutes). Following injection, the resin was washed with PBS at 0.2 mL/min and, subsequently, with 100 mM NaCl in PBS at 0.2 mL/min. Elution was then conducted with […] pH 4. An acidic cleaning step was conducted in 0.1 M glycine pH 2.5 to remove any proteins still bound. The absorbance of the effluent was monitored by UV/Vis spectrophotometry at 280 nm. Fractions were collected and adjusted to neutral pH. Total protein concentration was measured by BCA assay. All collected fractions were also analyzed via SDS PAGE under reducing conditions. The gel was stained by silver staining, and the overall IgG purity in the eluted fractions was determined by densitometric analysis using ImageJ software. Finally, the feed and eluted fractions were analyzed using a CHO-specific ELISA kit to determine the log removal value (LRV) of HCPs.\nThe high purity of the recovered IgG using WQRHGI (SEQ ID NO:1), as calculated by densitometric analysis (100%) was confirmed by the HCP LRV value of 2.7, thus indicating WQRHGI (SEQ ID NO:1) has purification abilities similar to Protein A. This is a remarkable result. […] The collected chromatographic fractions were analyzed by SDS-PAGE (FIG. 7B, silver stained to highlight diluted CHO HCPs). The % values of IgG in the fractions (expressed as a ratio of IgG concentration over total protein (e.g., IgG+CHO HCPs)) were calculated by densitometric analysis of the lanes in the SDS gel and were as follows: Control (C), 0.00%; Load (L) 59.77%; Flowthrough (FT), 0.00%; Elution 1 (El1), 100.00%; Elution 2 (El2), 0.00%; IgG 93.30%. […]"}}}
{"substance": "WQRHGI", "values": [{"measurement": "DBC at 10% breakthrough", "setting": "human IgG; residence time 2 min", "value": 33.6, "unit": "mg IgG/mL resin"}, {"measurement": "DBC at 10% breakthrough", "setting": "human IgG; residence time 5 min", "value": 43.8, "unit": "mg IgG/mL resin"}, {"measurement": "% IgG over total protein", "setting": "[1]", "value": 100, "unit": "%"}]}
